From ChEMBL document CHEMBL3792283, “Biphenyl-4-yl-acrylohydroxamic acids: Identification of a novel indolyl-substituted HDAC inhibitor with antitumor activity” (Eur J Med Chem, 2016)
Calls of active or inactive are those of the source. No cut-off for these calls is given here.

What was measured:
[1] = Antiproliferative activity human HCT116 cells assessed as reduction in cell number after 72 hrs by cell counter analysis; format: functional, cell-based; conditions: HCT-116, 72 h
[2] = Antiproliferative activity against human IGROV1 cells assessed as reduction in cell number after 72 hrs by cell counter analysis; format: functional, cell-based; conditions: IGROV-1, 72 h
HT-29 [3] = assay: Antiproliferative activity against human HT-29 cells assessed as reduction in cell number after 72 hrs by cell counter analysis; format: functional, cell-based; conditions: HT-29, 72 h
LoVo = assay: Antiproliferative activity against human LoVo cells assessed as reduction in cell number after 72 hrs by cell counter analysis; format: functional, cell-based
[4] = Antiproliferative activity against human H460 cells assessed as reduction in cell number after 72 hrs by cell counter analysis; format: functional, cell-based; conditions: NCI-H460, 72 h
Histone deacetylase [5] = assay: Inhibition of HDAC in human HeLa cells using BOC-Ac-Lys-AMC as substrate incubated for 4 hrs by fluorescence assay; format: cell-based
Histone deacetylase [6] = assay: Inhibition of HDAC in human HeLa nuclear extract using BOC-Ac-Lys-AMC as substrate incubated for 90 mins by fluorescence assay; format: protein assay
Histone deacetylase 2 = Histone deacetylase 2 (Homo sapiens, UniProt Q92769); assay: Inhibition of human recombinant HDAC2 using Fluor de Lys Green as substrate incubated for 30 mins by fluorescence assay
Histone deacetylase 2, sequence (Q92769 whole entry): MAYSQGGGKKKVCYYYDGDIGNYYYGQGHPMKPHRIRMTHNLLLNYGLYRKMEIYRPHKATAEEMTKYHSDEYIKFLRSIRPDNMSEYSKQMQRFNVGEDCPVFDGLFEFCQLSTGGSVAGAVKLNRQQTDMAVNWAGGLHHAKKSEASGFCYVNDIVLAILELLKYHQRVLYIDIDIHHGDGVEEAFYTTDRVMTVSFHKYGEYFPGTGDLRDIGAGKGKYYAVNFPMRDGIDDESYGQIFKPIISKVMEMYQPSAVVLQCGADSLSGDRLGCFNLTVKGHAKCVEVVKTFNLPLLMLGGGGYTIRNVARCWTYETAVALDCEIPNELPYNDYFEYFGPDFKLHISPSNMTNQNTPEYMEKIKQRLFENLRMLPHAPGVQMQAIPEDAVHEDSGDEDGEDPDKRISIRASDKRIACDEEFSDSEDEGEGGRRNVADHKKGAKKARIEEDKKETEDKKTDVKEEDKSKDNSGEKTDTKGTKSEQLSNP

animal or person = format: functional; conditions: Homo sapiens, HCT-116, po, read-out: TGI
Description: Antitumor activity against human HCT116 cells xenografted in athymic Swiss nude mouse assessed as tumor growth inhibition at 175 mg/kg, po for 5 days a week for 4 weeks relative to control

[7] = Cell cycle arrest in human IGROV1 cells assessed as accumulation at G1 phase at 0.3 to 1 uM after 72 hrs by propidium iodide staining based flow cytometry; format: functional; conditions: IGROV-1
[8] = Antiproliferative activity against human LoVo/DX cells assessed as reduction in cell number after 72 hrs by cell counter analysis; format: functional, cell-based
HT-29 [9] = assay: Antiproliferative activity against mitoxantrone resistant human HT-29 cells assessed as reduction in cell number after 72 hrs by cell counter analysis; format: functional, cell-based; conditions: HT-29, 72 h
IGROV-1 [10] = assay: Induction of apoptosis in human IGROV1 cells at 1 uM after 72 hrs by TUNEL assay (reference value: 3%); format: functional
IGROV-1 [11] = assay: Induction of apoptosis in human IGROV1 cells at 0.3 uM after 72 hrs by TUNEL assay (reference value: 3%); format: functional

Compound: O=C(CCCCCCC(=O)Nc1ccccc1)NO [VORINOSTAT]
- IC50 [1]: 310 nM
- IC50 [2]: 2200 nM

Compound: CC(C)=C(c1ccccc1)c1ccc(/C=C/C(=O)NO)cc1
- IC50 (HT-29 [3]): 4120 nM
- IC50 (LoVo): 2790 nM
- IC50 [1]: 2000 nM
- IC50 [2]: 2500 nM
- IC50 [4]: 5500 nM
- IC50 (Histone deacetylase [5]): 2500 nM
- IC50 (Histone deacetylase [6]): 2600 nM
- IC50 (Histone deacetylase 2): 11800 nM

Compound: Cc1[nH]c2ccccc2c1/C=C/c1ccccc1-c1ccc(/C=C/C(=O)NO)cc1
- IC50 (HT-29 [3]): 1370 nM
- inhibition in vivo at 175 mg/kg (animal or person): 68%
- IC50 (LoVo): 6570 nM
- Activity [7]: Active
- IC50 [1]: 270 nM
- IC50 [8]: 4620 nM
- IC50 [2]: 350 nM
- IC50 [4]: 1410 nM
- IC50 (HT-29 [9]): 2440 nM
- Activity (IGROV-1 [10]): 79%
- Activity (IGROV-1 [11]): 34%

Compound: COc1ccc(-c2ccc(/C=C/C(=O)NO)cc2)cc1
- IC50 (HT-29 [3]): 1580 nM
- IC50 [1]: 260 nM
- IC50 [2]: 750 nM
- IC50 [4]: 3700 nM
- IC50 (HT-29 [9]): 1730 nM
